Measurements taken from ChEMBL document CHEMBL1152732, “Pharmacodynamics and pharmacokinetics studies of phenoxazinium derivatives for antimalarial agent” (Bioorg Med Chem, 2009).
Active and inactive are the calls of the source. The rule behind the calls is not given here.

Key:
Mus musculus = assay: Toxicity in Plasmodium berghei NK65-infected ICR mice (Mus musculus) assessed as death at 20 mg/kg/day, intraperitoneally administered 24 hrs after infection for 3 consecutive days measured 4 days postinfection; type: organism-based; design: route intraperitoneal; conditions: in vivo, ip, 96 h
Plasmodium berghei [1] = assay: Antimalarial activity as reduced parasitaemia at day 4 against Plasmodium berghei NK65 infected ICR mice (Mus musculus) at 100 mg/kg/day peroral dose for 3 days; type: functional; design: scale not given: the % may be the effect or the level left; conditions: route oral
Plasmodium berghei [2] = assay: Antimalarial activity as reduced parasitaemia against Plasmodium berghei NK65 infected ICR mice (Mus musculus) at 20 mg/kg/day intraperitoneal dose at day 4; type: functional; design: scale not given: the % may be the effect or the level left
Plasmodium berghei [3] = assay: Antimalarial activity as mean survival days against Plasmodium berghei NK65 infected ICR mice (Mus musculus) at 20 mg/kg/day intraperitoneal dose; type: functional
Plasmodium berghei [4] = assay: Antimalarial activity as mean survival days against Plasmodium berghei NK65 infected ICR mice (Mus musculus) at 100 mg/kg/day peroral dose at day 4; type: functional; conditions: route oral
Plasmodium berghei [5] = assay: Antimalarial activity at day 4 against Plasmodium berghei NK65 infected ICR mice (Mus musculus) as reduced parasitaemia at 10 mg/kg/day intraperitoneal dose 24 hrs post infection; type: functional; design: scale not given: the % may be the effect or the level left
Plasmodium berghei [6] = assay: Antimalarial activity as mean survival days against Plasmodium berghei NK65 infected ICR mice (Mus musculus) at 10 mg/kg/day intraperitoneal dose 24 hrs post infection; type: functional
Plasmodium berghei [7] = assay: Antimalarial activity as mean survival days against Plasmodium berghei NK65 infected ICR mice (Mus musculus) at 30 mg/kg/day peroral dose; type: functional; conditions: route oral
Plasmodium berghei [8] = assay: Antimalarial activity as reduced parasitaemia against Plasmodium berghei NK65 infected ICR mice (Mus musculus) at 30 mg/kg/day peroral dose at day 4; type: functional; design: scale not given: the % may be the effect or the level left; conditions: route oral
Plasmodium berghei [9] = assay: Antimalarial activity as reduced parasitaemia at day 7 against Plasmodium berghei NK65 infected ICR mice (Mus musculus) at 30 mg/kg/day peroral dose for 3 days; type: functional, organism-based
[10] = Plasma concentration in Wistar rat at 4 mg/kg, iv administered as single dose after 10 mins by HPLC; type: ADME, organism-based; design: dose 4 mg/kg, route intravenous
[11] = Plasma concentration in Wistar rat at 4 mg/kg, iv administered as single dose after 4 hrs by HPLC; type: ADME, organism-based; design: dose 4 mg/kg, route intravenous
[12] = Plasma concentration in fasted Wistar rat at 4 mg/kg, po administered as single dose after 2 hrs by HPLC; type: ADME, organism-based; design: dose 4 mg/kg, route oral
[13] = Plasma concentration in fasted Wistar rat at 4 mg/kg, po administered as single dose after 1 hr by HPLC; type: ADME, organism-based; design: dose 4 mg/kg, route oral
[14] = Plasma concentration in fasted Wistar rat at 30 mg/kg, po administered as single dose after 2 hrs by HPLC; type: ADME, organism-based; design: dose 30 mg/kg, route oral
[15] = Plasma concentration in fasted Wistar rat at 30 mg/kg, po administered as single dose after 1 hr by HPLC; type: ADME, organism-based; design: dose 30 mg/kg, route oral
[16] = Oral bioavailability in Wistar rat at 4 mg/kg administered as single dose; type: ADME, organism-based; conditions: in vivo
[17] = Oral bioavailability in Wistar rat at 30 mg/kg administered as single dose; type: ADME, organism-based; conditions: in vivo
[18] = Half life in Wistar rat at 4 mg/kg, iv administered as single dose; type: ADME, organism-based; design: dose 4 mg/kg, route intravenous; conditions: in vivo
[19] = Clearance in Wistar rat at 4 mg/kg, iv administered as single dose; type: ADME, organism-based; design: dose 4 mg/kg, route intravenous; conditions: in vivo
[20] = Apparent volume of distribution in Wistar rat at 4 mg/kg, iv administered as single dose; type: ADME, organism-based; design: dose 4 mg/kg, route intravenous; conditions: in vivo, read-out: Vz
[21] = Half life in Wistar rat at 4 mg/kg, po administered as single dose; type: ADME, organism-based; design: dose 4 mg/kg, route oral; conditions: in vivo
[22] = Tmax in Wistar rat at 4 mg/kg, po administered as single dose; type: ADME, organism-based; design: dose 4 mg/kg, route oral; conditions: in vivo
[23] = Clearance in Wistar rat at 4 mg/kg, po administered as single dose; type: ADME, organism-based; design: dose 4 mg/kg, route oral; conditions: in vivo
Rattus norvegicus [24] = assay: Apparent volume of distribution in Wistar rat at 4 mg/kg, po administered as single dose; type: ADME, organism-based; design: dose 4 mg/kg, route oral; conditions: in vivo
[25] = Half life in Wistar rat at 30 mg/kg, po administered as single dose; type: ADME, organism-based; design: dose 30 mg/kg, route oral; conditions: in vivo
[26] = Tmax in Wistar rat at 30 mg/kg, po administered as single dose; type: ADME, organism-based; design: dose 30 mg/kg, route oral; conditions: in vivo
[27] = Clearance in Wistar rat at 30 mg/kg, po administered as single dose; type: ADME, organism-based; design: dose 30 mg/kg, route oral; conditions: in vivo
Rattus norvegicus [28] = assay: Apparent volume of distribution in Wistar rat at 30 mg/kg, po administered as single dose; type: ADME, organism-based; design: dose 30 mg/kg, route oral; conditions: in vivo
[29] = Plasma concentration in fasted Wistar rat at 30 mg/kg, po after 1 hr by HPLC; type: ADME, organism-based; design: dose 30 mg/kg, route oral
[30] = Plasma concentration in fasted Wistar rat at 30 mg/kg/day, po after 25 hrs by HPLC; type: ADME, organism-based; design: route oral
[31] = Plasma concentration in fasted Wistar rat at 30 mg/kg/day, po after 49 hrs by HPLC; type: ADME, organism-based; design: route oral
Plasmodium berghei [32] = assay: Antimalarial activity as recurrence of parasitaemia at day 5 in Plasmodium berghei NK65 infected ICR mice (Mus musculus) at 4 mg/kg/day peroral dose for 3 days; type: functional, organism-based
Plasmodium berghei [33] = assay: Antimalarial activity recurrence of parasitaemia in Plasmodium berghei NK65 infected ICR mice (Mus musculus) at 4 mg/kg/day intravenous dose for 3 days; type: functional, organism-based
Plasmodium berghei [34] = assay: (§1) Antimalarial activity as reduced parasitaemia at day 6 against Plasmodium berghei NK65 infected ICR mice (Mus musculus) at 30 mg/kg/day peroral dose for 3 days; type: functional; design: scale not given: the % may be the effect or the level left; conditions: route oral
Plasmodium falciparum = assay: Antimalarial activity against chloroquine and pyrimethamine-resistant Plasmodium falciparum K1; type: functional, organism-based
[35] = Selectivity index, ratio of IC50 for rat L6 cells to IC50 for chloroquine and pyrimethamine-resistant Plasmodium falciparum K1; type: toxicity, cell-based; conditions: read-out: Ratio IC50
Plasmodium berghei [36] = assay: Antimalarial activity as reduced parasitaemia against Plasmodium berghei NK65 infected ICR mice (Mus musculus) at 30 mg/kg peroral dose at day 4; type: functional; design: scale not given: the % may be the effect or the level left; conditions: route oral
Plasmodium berghei [37] = assay: Antimalarial activity as reduced parasitaemia against Plasmodium berghei NK65 infected ICR mice (Mus musculus) at 4 mg/kg intravenous dose at day 4; type: functional; design: scale not given: the % may be the effect or the level left
Plasmodium berghei [38] = assay: Antimalarial activity as reduced parasitaemia against Plasmodium berghei NK65 infected ICR mice (Mus musculus) at 4 mg/kg peroral dose at day 4; type: functional; design: scale not given: the % may be the effect or the level left; conditions: route oral
Plasmodium berghei [39] = assay: as §1; type: functional, organism-based

CCCCN(CCCC)c1ccc2nc3ccc(N4CCCCC4)cc3[o+]c2c1.[Cl-]
Activity (Mus musculus): Toxic

[Cl-].c1cc2nc3ccc(N4CCCC4)cc3[o+]c2cc1N1CCCC1
Activity (Plasmodium berghei [1]): 95.3%
Activity (Plasmodium berghei [2]): 95.4%
MSD (Plasmodium berghei [3]): 8.3 days
MSD (Plasmodium berghei [4]): 8.3 days

CCCN(CCC)c1ccc2nc3ccc(N4CCOCC4)cc3[o+]c2c1.[Cl-]
Activity (Plasmodium berghei [1]): 99.5%
Activity (Plasmodium berghei [2]): 95.7%
MSD (Plasmodium berghei [3]): 18 days
MSD (Plasmodium berghei [4]): 10 days

CCN(CC)CCCC(C)Nc1ccnc2cc(Cl)ccc12 (configuration not stated) [CHLOROQUINE]
Activity (Plasmodium berghei [5]): 90.6%
MSD (Plasmodium berghei [6]): 22.7 days
MSD (Plasmodium berghei [7]): 9.6 days
Activity (Plasmodium berghei [8]): 98.4%

CCCCCCN(CCCCCC)c1ccc2nc3ccc(N4CCCCC4)cc3[o+]c2c1.[Cl-]
Activity (Mus musculus): Toxic

CN(C)c1ccc2nc3ccc(N4CCCCC4)cc3[o+]c2c1.[Cl-]
Activity (Plasmodium berghei [1]): 97.8%
Activity (Plasmodium berghei [2]): 96.4%
MSD (Plasmodium berghei [3]): 15.5 days
MSD (Plasmodium berghei [4]): 7.6 days

CCN(CC)c1ccc2nc3ccc(N4CCCCC4)cc3[o+]c2c1.[Cl-]
Activity (Plasmodium berghei [1]): 97.8%
Activity (Plasmodium berghei [9]): inactive
concentration at 10 min [10]: 468 ng/mL
concentration at 4 h [11]: 96.6 ng/mL
concentration at 2 h [12]: 158 ng/mL
concentration at 1 h [13]: 658 ng/mL
concentration at 2 h [14]: 158 ng/mL
concentration at 1 h [15]: 658 ng/mL
bioavailability [16]: 89.6%
bioavailability [17]: 60.7%
half-life [18]: 8.82 h
clearance [19]: 44.5 mL/min/kg
Vd [20]: 35.3 L/kg
half-life [21]: 9.84 h
Tmax [22]: 0.99 h
CL/F [23]: 43.3 mL/min/kg
Vz (Rattus norvegicus [24]): 36.9 L/kg
half-life [25]: 10.3 h
Tmax [26]: 0.98 h
CL/F [27]: 43.3 mL/min/kg
Vz (Rattus norvegicus [28]): 38.5 L/kg
concentration at 1 h [29]: 299 ng/mL
concentration at 25 h [30]: 420 ng/mL
concentration at 49 h [31]: 583 ng/mL
Activity (Plasmodium berghei [32]): inactive
Activity (Plasmodium berghei [33]): inactive
Activity (Plasmodium berghei [34]): 90%
IC50 (Plasmodium falciparum): 2.69 nM
selectivity ratio [35]: 2390
Activity (Plasmodium berghei [2]): 95.9%
MSD (Plasmodium berghei [3]): 23.3 days
MSD (Plasmodium berghei [4]): 12.7 days
Activity (Plasmodium berghei [36]): 96.2%
Activity (Plasmodium berghei [37]): 85.9%
Activity (Plasmodium berghei [38]): 76%
Activity (Plasmodium berghei [39]): Active

CCN(CC)c1ccc2nc3ccc(N4CCOCC4)cc3[o+]c2c1.[Cl-]
Activity (Plasmodium berghei [1]): 96.3%
Activity (Plasmodium berghei [2]): 90%
MSD (Plasmodium berghei [3]): 12.3 days
MSD (Plasmodium berghei [4]): 13 days

CN(C)c1ccc2nc3ccc(N4CCSCC4)cc3[o+]c2c1.[Cl-]
Activity (Plasmodium berghei [1]): 84.9%
Activity (Plasmodium berghei [2]): 94.5%
MSD (Plasmodium berghei [3]): 9.8 days
MSD (Plasmodium berghei [4]): 11.3 days

CCN(CC)c1ccc2nc3ccc(N4CCSCC4)cc3[o+]c2c1.[Cl-]
Activity (Plasmodium berghei [1]): 66.3%
Activity (Plasmodium berghei [2]): 99.2%
MSD (Plasmodium berghei [3]): 11.5 days
MSD (Plasmodium berghei [4]): 6.3 days

CCCN(CCC)c1ccc2nc3ccc(N4CCCCC4)cc3[o+]c2c1.[Cl-]
Activity (Plasmodium berghei [1]): 97.6%
Activity (Plasmodium berghei [2]): 93.2%
MSD (Plasmodium berghei [3]): 12.3 days
MSD (Plasmodium berghei [4]): 10.3 days

CN(C)c1ccc2nc3ccc(N4CCCC4)cc3[o+]c2c1.[Cl-]
Activity (Plasmodium berghei [1]): 90.3%
Activity (Plasmodium berghei [2]): 95.7%
MSD (Plasmodium berghei [3]): 7.8 days
MSD (Plasmodium berghei [4]): 10 days

[Cl-].c1cc2nc3ccc(N4CCCCC4)cc3[o+]c2cc1N1CCCCC1
Activity (Plasmodium berghei [1]): 99.8%
Activity (Plasmodium berghei [2]): 97.2%
MSD (Plasmodium berghei [3]): 16.8 days
MSD (Plasmodium berghei [4]): 11.3 days

CCCN(CCC)c1ccc2nc3ccc(N4CCCC4)cc3[o+]c2c1.[Cl-]
Activity (Plasmodium berghei [1]): 99.6%
Activity (Plasmodium berghei [2]): 95.2%
MSD (Plasmodium berghei [3]): 14.8 days
MSD (Plasmodium berghei [4]): 10 days

CCCN(CCC)c1ccc2nc3ccc(N4CCSCC4)cc3[o+]c2c1.[Cl-]
Activity (Plasmodium berghei [1]): 68.9%
Activity (Plasmodium berghei [2]): 96.5%
MSD (Plasmodium berghei [3]): 12.5 days
MSD (Plasmodium berghei [4]): 7 days

CCCCCN(CCCCC)c1ccc2nc3ccc(N4CCCCC4)cc3[o+]c2c1.[Cl-]
Activity (Mus musculus): Toxic
